Assay results from patent publication US12502393B2, “Dual mode of action soluble guanylate cyclase activators and phosphodiesterase inhibitors and uses thereof” (TOPADUR PHARMA AG, priority 2018, dated 2025).
Where two headings read alike, the source gives them in different places.

How the values were obtained:
[1] = biological target: T1, recombinant human (rh) PDE5A (Homo sapiens, UniProt O76074); assay: Phosphodiesterase-5 activity assay (radiometric SPA); type: biochemical; conditions: rhPDE5A1, 0.5 μM cGMP, 20 min at 37° C.
T1 construct: GST; purchased SIGMA E9034

[2] = tested on: Rat aortic smooth muscle cells; assay: Cellular cGMP assay in rat aortic smooth muscle cells; type: cell-based; conditions: 10 μM Riociguat
Experimental: Examples (Test compounds) were characterized for their potency and efficacy to elevate cGMP in cellular systems such as human trabecular meshwork cells (Table 3), human platelets (Table 5) and rat aortic smooth muscle cells (Table 4).
Human trabecular meshwork cells (ABC Biopply AG, Solothurn, Switzerland) or rat aortic smooth muscle cells (Sigma Aldrich AG, Buchs, Switzerland) were plated in a 96 well plate precoated with collagen (Collagen Type I solution from rat tail, Sigma; diluted to 0.1 mg/ml) at 20.000 cells per well and grown in corresponding Trabecular Meshwork (ABC Supply AG) or Smooth Muscle (Sigma AG) Growth medium as provided by the manufacturers. After 18 h medium was exchanged and new medium added supplemented with 5 mM GSH. The next day culture medium was exchanged to DMEM with low glucose supplemented with 5 mM GSH. Cells were pre-incubated with 10 μM Riociguat (soluble guanylate cyclase stimulator; Lucerna-Chem AG, Luzern, Switzerland) for 15 min before test or reference compounds or vehicle was added to a final incubation volume of 100 μl per well. At the end of the incubation time (see below) the reaction was terminated by adding HCl (0.16M), IBMX (Isobutylmethylxanthin) (2 mM) in DMSO (2%) to the culture medium, final concentrations per well are given in brackets. Following a 20 sec on a plate shaker (200 rpm) the plate was immediately frozen at −80° C.
(§1) cGMP was determined by a commercially available ELISA kit (Direct cGMP ELISA kit, Enzo Life Sciences AG, Lauren, Switzerland) with a lower detection limit of 0.08 pmol/ml using the acetylation protocol following manufacturer's instructions. Results are given as the means from at least two independent experiments each in triplicate.
(§2) To study concentration-dependent effects on total cGMP test and reference compounds were investigated from 0.1 nM to 1 μM in half-logarithmic steps with an incubation time of 2 h. To examine the time course the incubation times were (min) 10, 30, 60, 90, 120 at 1 μM of test or reference compound.
(§3) Compounds were diluted from stock solutions in DMSO. The final concentration of DMSO in all wells including the vehicle controls was 0.2% for human trabecular meshwork and rat aortic smooth muscle cells and 0.3% for platelets.
(§4) From time course experiments, the time to half of the maximum cGMP increase with 1 μM of test compound has been extrapolated (t0.5max).

[3] = tested on: Human Platelets; assay: Total cGMP in human platelets; type: cell-based; conditions: for Ratio Maximum cGMP increase vs Baseline: 1 μM riociguat and 100 nM BAY 190954, incubation 2 h; for Concentration (nM) for 3-fold cGMP or 2-fold* increase vs Baseline: 1 μM riociguat, 100 nM BAY 190954
Experimental: Effects of test and reference compounds on total cGMP in human platelets were investigated as described by Dunkern and Hatzelmann (Cell Signal. 17: 331-9, 2005) with modifications. Briefly, buffy coats (acquired form SRK Blutspende Zurich) were 4-fold diluted in 150 mM sodium chloride solution containing 0.9% sodium citrate and centrifuged at 200 g for 10 min. The resulting platelet-rich plasma was supplemented with a 1/10 volume of ACD solution (85 mM sodium citrate, 111 mM D-glucose, 71 mM citric acid, pH 4.4) and apyrase (Sigma AG) to a final concentration of 2 U/ml. After another centrifugation (1400 g, 10 min) the cellular pellet was resuspended in Ca2+/Mg2+-free Hepes-Tyrode buffer (134 mM NaCl, 12 mM NaHCO3, 2.9 mM KCl, 0.36 mM NaH2PO4, 5 mM HEPES, 5 mM glucose, 0.5% (w/v) bovine serum albumin, pH 7.4) and platelets were counted.
Platelets were used at 9×10^7 cells in 100 μl per well and after adding test and reference compounds the incubation volume was 200 μl per well in Hepes-Tyrode. Experiments in platelets were done in presence of 1 μM riociguat and 100 nM BAY 190954 (PDE2 inhibitor) (Lucerna Chem AG) and test/reference compounds were added after a preincubation time of 15 min. At the end of the incubation time (see below) the reaction was terminated by adding 20 μl of 2N HCl per well. Following a 20 sec on a plate shaker (300 rpm) the plate was left for 15 min and then centrifuged at 1000×g for 5 min. Supernatants were stored at −80° C.
as §1, §2, §3, §4

[4] = tested on: Human Trabecular Meshwork Cells; assay: Cellular cGMP assay in human trabecular meshwork cells; type: cell-based; conditions: HTMC, 10 μM Riociguat; for Ratio Maximum cGMP increase vs Baseline: 5 mM GSH, incubation 2 h
[5] = Human plasma protein binding; type: in vitro ADME; conditions: for fraction unbound: human
Experimental: An aliquot of 200 μL of human plasma containing test compound was spiked into donor well (red chamber) of the insert. 350 μL of PBS was spiked into receiver well (white chamber) of the insert.
The samples were matrix equilibrated with opposite matrix (25 μL of plasma/buffer sample was matched with 25 μL of blank buffer/plasma). Matrix matched samples were precipitated with 200 μL of acetonitrile containing internal standard. Samples were vortexed at 1000 rpm for 5 min and centrifuged at 4000 rpm for 10 min. Supernatant was separated, diluted 2 fold with water and analysed in LC-MS/MS. (Table 2).

[6] = 3-fold increase (values without asterisk)
[7] = 2-fold increase (values marked *)
[8] = read-out: % Unbound in human plasma
[9] = read-out: % Bound in human plasma (converted)

fraction unbound [5, 9] | Structure (SMILES) | IC50 [1] [nM] | Concentration (nM) for 3-fold cGMP increase vs Baseline [2] [nM] | Ratio Maximum cGMP increase vs Baseline ([2]; 5 mM GSH, incubation 2 h) | Ratio Maximum cGMP increase vs Baseline [3] | Concentration (nM) for 3-fold cGMP or 2-fold* increase vs Baseline [3, 6] [nM] | Concentration (nM) for 3-fold or 2-fold* cGMP increase vs Baseline [4, 6] [nM] | Ratio Maximum cGMP increase vs Baseline [4] | Concentration (nM) for 3-fold or 2-fold* cGMP increase vs Baseline [4, 7] | % Bound in human plasma [5] [%] | fraction unbound [5, 8] | Concentration (nM) for 3-fold cGMP or 2-fold* increase vs Baseline [3, 7]
 | CCCc1nn(C)c2c(=O)[nH]c(-c3cc(S(=O)(=O)N4CCC([C@H](CO[N+](=O)[O-])O[N+](=O)[O-])CC4)ccc3OCC)nc12 [Compound 1a, (R)-1-(1-((4-ethoxy-3-(1-methyl-7-oxo-3-propyl-6,7-dihydro-1H-pyrazolo[4,3-d]pyrimidin-5-yl)phenyl)sulfonyl)piperidin-4-yl)ethane-1,2-diyl dinitrate] | 5 | 222 | 4.44 | 67.4 | 57 | 26.7 | 55.7 |  |  |  | 
 | CCCc1nc(C)c2c(=O)[nH]c(-c3cc(S(=O)(=O)N4CCC(C(O)(CCO)CCO[N+](=O)[O-])CC4)ccc3OCC)nn12 (stereo not shown) [Compound 2g, 3-(1-((4-ethoxy-3-(5-methyl-4-oxo-7-propyl-3,4-dihydroimidazo[5,1-f][1,2,4]triazin-2-yl)phenyl)sulfonyl)piperidin-4-yl)-3,5-dihydroxypentyl nitrate] | 0.37 |  |  | 183.5 |  |  | 109.1 | 22.2* nM | 98.29 | 0.0171 | 
 | CCCc1nc(C)c2c(=O)[nH]c(-c3cc(S(=O)(=O)N4CCC(C(O)(CCO[N+](=O)[O-])CCO[N+](=O)[O-])CC4)ccc3OCC)nn12 [Compound 2h, 3-(1-((4-ethoxy-3-(5-methyl-4-oxo-7-propyl-3,4-dihydroimidazo[5,1-f][1,2,4]triazin-2-yl)phenyl)sulfonyl)piperidin-4-yl)-3-hydroxypentane-1,5-diyl dinitrate] | 1 |  |  | 171.3 |  |  |  |  | 99.77 | 0.0023 | 
 | CCCc1nc(C)c2c(=O)[nH]c(-c3cc(S(=O)(=O)N4CCC(C(O)C(CO[N+](=O)[O-])CO[N+](=O)[O-])CC4)ccc3OCC)nn12 (stereo not shown) [Compound 2i, 2-((1-((4-ethoxy-3-(5-methyl-4-oxo-7-propyl-3,4-dihydroimidazo[5,1-f][1,2,4]triazin-2-yl)phenyl)sulfonyl)piperidin-4-yl)(hydroxy)methyl)propane-1,3-diyl dinitrate] | 1.5 |  |  | 932.9 |  |  |  |  | 99.99 | 0.0001 | 
 | CCCc1nc(C)c2c(=O)[nH]c(-c3cc(S(=O)(=O)N4CCC(CC(CO[N+](=O)[O-])CO[N+](=O)[O-])CC4)ccc3OCC)nn12 [Compound 2m, 2-((1-((4-ethoxy-3-(5-methyl-4-oxo-7-propyl-3,4-dihydroimidazo[5,1-f][1,2,4]triazin-2-yl)phenyl)sulfonyl)piperidin-4-yl)methyl)propane-1,3-diyl dinitrate] | 0.44 |  |  | 262.3 |  |  |  |  | 99.92 | 0.0008 | 
 | CCCc1nc(C)c2c(=O)[nH]c(-c3cc(S(=O)(=O)N4CCC(CC(CO)CO[N+](=O)[O-])CC4)ccc3OCC)nn12 (stereo not shown) [Compound 2n, 3-(1-((4-ethoxy-3-(5-methyl-4-oxo-7-propyl-3,4-dihydroimidazo[5,1-f][1,2,4]triazin-2-yl)phenyl)sulfonyl)piperidin-4-yl)-2-(hydroxymethyl)propyl nitrate] | 0.47 |  |  | 161.0 |  |  |  |  | 99.48 | 0.0052 | 
 | CCCc1nc(C)c2c(=O)[nH]c(-c3cc(S(=O)(=O)N4CCC(CC(C)(CO[N+](=O)[O-])CO[N+](=O)[O-])CC4)ccc3OCC)nn12 [Compound 2o, 2-((1-((4-ethoxy-3-(5-methyl-4-oxo-7-propyl-3,4-dihydroimidazo[5,1-f][1,2,4]triazin-2-yl)phenyl)sulfonyl)piperidin-4-yl)methyl)-2-methylpropane-1,3-diyl dinitrate] | 0.52 |  |  | 202.8 |  |  | 86.9 | 1.9* nM | 99.95 | 0.0005 | 120* nM
 | CCCc1nc(C)c2c(=O)[nH]c(-c3cc(S(=O)(=O)N4CCC(CC(C)(CO)CO[N+](=O)[O-])CC4)ccc3OCC)nn12 (stereo not shown) [Compound 2p, 3-(1-((4-ethoxy-3-(5-methyl-4-oxo-7-propyl-3,4-dihydroimidazo[5,1-f][1,2,4]triazin-2-yl)phenyl)sulfonyl)piperidin-4-yl)-2-(hydroxymethyl)-2-methylpropyl nitrate] | 0.11 |  |  | 204.1 |  |  | 46.1 | 1.4* nM | 99.66 | 0.0034 | 102* nM
0.036 | CCCc1nn(C)c2c(=O)[nH]c(-c3cc(S(=O)(=O)N4CCC(C(O)C(CO)CO)CC4)ccc3OCC)nc12 (stereo not shown) [Compound 22, 5-(5-((4-(1,3-dihydroxy-2-(hydroxymethyl)propyl)piperidin-1-yl)sulfonyl)-2-ethoxyphenyl)-1-methyl-3-propyl-1,6-dihydro-7H-pyrazolo[4,3-d]pyrimidin-7-one] | 8.5 |  |  |  |  |  |  |  |  | 0.036 | 
0.069 | CCCc1nc(C)c2c(=O)[nH]c(-c3cc(S(=O)(=O)N4CCC(C(O)(CCO)CCO)CC4)ccc3OCC)nn12 [Compound 28, 2-(2-ethoxy-5-((4-(1,3,5-trihydroxypentan-3-yl)piperidin-1-yl)sulfonyl)phenyl)-5-methyl-7-propylimidazo[5,1-f][1,2,4]triazin-4(3H)-one] | 0.19 |  |  |  |  |  |  |  |  | 0.069 | 
0.022 | CCCc1nc(C)c2c(=O)[nH]c(-c3cc(S(=O)(=O)N4CCC(CC(CO)CO)CC4)ccc3OCC)nn12 [Compound 43, 2-(2-ethoxy-5-(4-(3-hydroxy-2-(hydroxymethyl)propyl)piperidin-1-ylsulfonyl)phenyl)-5-methyl-7-propylimidazo[1,5-f][1,2,4]triazin-4(3H)-one] | 0.13 |  |  | 28.5 |  |  |  |  |  | 0.022 | 
 | CCCc1nc(C)c2c(=O)[nH]c(-c3cc(S(=O)(=O)N4CCC(CC(C)(CO)CO)CC4)ccc3OCC)nn12 [Compound 47, 2-(2-ethoxy-5-((4-(3-hydroxy-2-(hydroxymethyl)-2-methylpropyl)piperidin-1-yl)sulfonyl)phenyl)-5-methyl-7-propylimidazo[5,1-f][1,2,4]triazin-4(3H)-one] | 0.022 |  |  | 39.0 |  |  |  |  |  |  | 
